The nature of series [1]: in vitro. On the set-up: species or system CCD841, HEK293. Particulars: human, hb2 cells, read-out: HB-2 Cells Viability (%).
The target of series [2] is T1, BSA (Bos taurus, UniProt P02769).
T1 construct: gene ALB
On the set-up: Intact protein LC/MS covalent labelling, fragments in pools of five, 200 uM each, 4 °C. To be noted: 24 h, 4 °C, pool of five; 200 µM; covalent.

In series [3] the target is T2, NNMT (hNNMT) (Homo sapiens, UniProt P40261).
T2 construct: wild type, N-terminal His6 tag kept (no cleavage described), E. coli, construct 31248 Da
T2 sequence (P40261 1-264): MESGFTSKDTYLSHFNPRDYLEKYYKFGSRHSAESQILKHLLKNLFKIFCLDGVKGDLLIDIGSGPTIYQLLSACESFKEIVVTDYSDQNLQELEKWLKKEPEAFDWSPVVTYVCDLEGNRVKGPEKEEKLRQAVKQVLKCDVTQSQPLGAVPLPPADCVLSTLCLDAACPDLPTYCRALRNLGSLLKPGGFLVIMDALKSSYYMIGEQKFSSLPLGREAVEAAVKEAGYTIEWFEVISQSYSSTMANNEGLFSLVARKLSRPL
More on the design: Intact protein LC/MS covalent labelling, fragments in pools of five, 200 uM each, 4 °C. Particulars: 24 h, 4 °C, pool of five; 200 µM; covalent.

The target of series [4] is T3, PCAF (Homo sapiens, UniProt Q92831).
T3 construct: gene KAT2B
On the set-up: Intact protein LC/MS covalent labelling, fragments in pools of five, 200 uM each, 4 °C. To be noted: 24 h, 4 °C, pool of five; 200 µM; covalent.

In series [5] the target is T4, NUDT7 (Homo sapiens, UniProt P0C024).
T4 construct: residues 14-235, E. coli, pNIC28-Bsa4, N-terminal His6 tag removed by TEV, construct 26672 Da
More on the design: Intact protein LC/MS covalent labelling, fragments in pools of five, 200 uM each, 4 °C. Particulars: 24 h, 4 °C, pool of five; 200 µM; covalent.

The target of series [6] is T5, OTUB2 (OTUB2A) (Homo sapiens, UniProt Q96DC9).
T5 construct: full length residues 1-234, E. coli BL21(DE3)-R3, His tag removed by TEV, construct 27312 Da
T5 sequence (Q96DC9 1-234): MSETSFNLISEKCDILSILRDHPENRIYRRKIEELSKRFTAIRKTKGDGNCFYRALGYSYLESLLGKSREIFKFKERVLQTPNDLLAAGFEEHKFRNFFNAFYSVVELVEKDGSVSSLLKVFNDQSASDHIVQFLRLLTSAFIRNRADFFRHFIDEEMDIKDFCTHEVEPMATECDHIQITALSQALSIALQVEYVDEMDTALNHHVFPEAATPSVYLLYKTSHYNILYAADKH
More on the design: Intact protein LC/MS covalent labelling, fragments in pools of five, 200 uM each, 4 °C. Particulars: 24 h, 4 °C, pool of five; 200 µM; covalent.

Series [7] in a line: in vitro. On the set-up: species or system HB2, CCD841. To be noted: human, hek293 cells.
Series [8] in a line: in vitro. More on the design: species or system HB2, HEK293. Particulars: human, ccd841 cells.

Where two headings read alike, the source gives them in different places.

T3 sequence (Q92831 whole entry): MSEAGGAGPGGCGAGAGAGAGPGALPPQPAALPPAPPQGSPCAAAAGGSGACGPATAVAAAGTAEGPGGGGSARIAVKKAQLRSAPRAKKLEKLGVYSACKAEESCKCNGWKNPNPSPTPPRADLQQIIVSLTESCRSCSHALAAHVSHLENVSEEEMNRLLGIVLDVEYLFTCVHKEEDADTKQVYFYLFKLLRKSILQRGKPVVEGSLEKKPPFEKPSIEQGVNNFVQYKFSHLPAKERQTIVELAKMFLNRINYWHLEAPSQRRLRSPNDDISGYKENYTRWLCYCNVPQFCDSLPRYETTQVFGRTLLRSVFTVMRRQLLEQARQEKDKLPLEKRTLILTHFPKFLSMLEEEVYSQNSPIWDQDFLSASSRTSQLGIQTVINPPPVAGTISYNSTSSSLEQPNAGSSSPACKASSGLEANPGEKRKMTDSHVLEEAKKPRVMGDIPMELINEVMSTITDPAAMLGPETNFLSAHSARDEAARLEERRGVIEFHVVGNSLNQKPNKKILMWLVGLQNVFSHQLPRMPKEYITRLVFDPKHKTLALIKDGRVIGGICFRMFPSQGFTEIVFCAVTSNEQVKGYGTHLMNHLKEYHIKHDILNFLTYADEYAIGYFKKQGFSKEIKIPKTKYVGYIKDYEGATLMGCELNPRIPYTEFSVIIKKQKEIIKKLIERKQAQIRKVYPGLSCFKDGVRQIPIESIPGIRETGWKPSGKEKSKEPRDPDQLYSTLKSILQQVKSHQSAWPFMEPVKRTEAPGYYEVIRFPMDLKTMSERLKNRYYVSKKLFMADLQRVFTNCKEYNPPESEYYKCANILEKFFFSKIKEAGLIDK
T4 sequence (P0C024 14-235): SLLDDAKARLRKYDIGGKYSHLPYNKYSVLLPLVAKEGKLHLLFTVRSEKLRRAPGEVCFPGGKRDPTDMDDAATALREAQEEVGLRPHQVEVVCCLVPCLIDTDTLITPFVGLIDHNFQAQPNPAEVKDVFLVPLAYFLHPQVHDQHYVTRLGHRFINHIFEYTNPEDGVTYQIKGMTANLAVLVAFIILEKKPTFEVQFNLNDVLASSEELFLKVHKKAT
T1 sequence (P02769 whole entry): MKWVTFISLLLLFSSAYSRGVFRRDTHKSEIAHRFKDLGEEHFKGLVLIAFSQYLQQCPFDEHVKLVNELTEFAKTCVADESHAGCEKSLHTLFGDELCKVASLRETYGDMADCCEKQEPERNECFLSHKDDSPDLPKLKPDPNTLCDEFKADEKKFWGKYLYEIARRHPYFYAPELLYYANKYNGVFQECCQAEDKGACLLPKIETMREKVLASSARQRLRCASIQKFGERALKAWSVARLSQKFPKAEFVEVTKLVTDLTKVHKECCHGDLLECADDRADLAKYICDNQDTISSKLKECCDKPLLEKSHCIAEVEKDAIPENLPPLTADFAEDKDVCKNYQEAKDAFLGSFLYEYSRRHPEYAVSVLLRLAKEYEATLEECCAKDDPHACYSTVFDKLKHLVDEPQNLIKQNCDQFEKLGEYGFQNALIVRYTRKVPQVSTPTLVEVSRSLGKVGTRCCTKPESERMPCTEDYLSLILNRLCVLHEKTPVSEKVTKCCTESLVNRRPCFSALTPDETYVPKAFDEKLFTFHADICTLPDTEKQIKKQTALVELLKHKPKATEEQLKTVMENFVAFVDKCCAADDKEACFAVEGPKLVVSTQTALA

`CC1(C)C2CCC1(C)C(NC(=O)CCl)C2` (stereo not shown) [PCM-0102315]: the figures for the viability at 48 h, 10 µM in series [1], in series [7] and in series [8] were 84.4%, 75.9% and 95%, respectively. Moreover, the BSA in series [2] amounted to 0.12. The same compound registered an NNMT in series [3] of 0. Further, the PCAF in series [4] worked out at 0. For the same compound, the NUDT7 in series [5] is recorded as 0. The OTUB2 in series [6] is reported as 0.

Regarding `C=CC(=O)N(C)C1CCCc2nc(CC)sc21` (stereo not shown) [PCM-0102483], the viability at 48 h, 10 µM in series [1] is 98.1%; in series [7], 97.3%; in series [8], 103%. In series [2], the BSA was 0. This compound displayed an NNMT in series [3] of 0. Further, in series [4], the PCAF came out at 0. The compound further displayed an NUDT7 in series [5] of 0. Moreover, the OTUB2 in series [6] turned out to be 0.

On to `CNC(=O)c1cccc(NC(=O)CCl)c1` [PCM-0102113], for which the viability at 48 h, 10 µM in series [1] is 25.2%; in series [7], 1.7%; in series [8], 55%. The same compound yielded a BSA in series [2] of 0. The compound further showed an NNMT in series [3] of 0. The PCAF in series [4] came to 0. Moreover, the NUDT7 in series [5] is reported as 0. The OTUB2 in series [6] was 0.

With `O=C(CCl)Nc1nnc(CC(F)(F)F)o1` [PCM-0102779], the values for the viability at 48 h, 10 µM in series [1], in series [7] and in series [8] were 106%, 102% and 99.9%, respectively. The BSA in series [2] is reported as 0. For the same compound, the NNMT in series [3] worked out at 0.24. The compound further displayed a PCAF in series [4] of 0. In addition, in series [5], the NUDT7 is 0. In series [6], this compound returned an OTUB2 of 0.

On to `O=C(CCl)Nc1ccc2c(c1)CCC2` [PCM-0102662], for which the values for the viability at 48 h, 10 µM in series [1], in series [7] and in series [8] were 16.3%, 4.7% and 56.2%, respectively. Also, the BSA in series [2] was 0. In series [3], this compound registered an NNMT of 0.22. Moreover, the PCAF in series [4] turned out to be 0. The NUDT7 in series [5] is 0.12. The OTUB2 in series [6] was 0.14.

Turning to `C=CC(=O)N1CCC(CN2C(=O)CNC2=O)C1` (stereo not shown) [PCM-0102488], the viability at 48 h, 10 µM in series [1] was 96.6%; in series [7], 100%; in series [8] it was 114%. The BSA in series [2] is on record as 0. The compound also showed an NNMT in series [3] of 0. Moreover, the PCAF in series [4] is on record as 0. The same compound yielded an NUDT7 in series [5] of 0. The compound further registered an OTUB2 in series [6] of 0.

In the case of `Cc1cc(C)c(NC(=O)CCl)c(Cl)c1` [PCM-0102994], the viability at 48 h, 10 µM in series [1] turned out to be 94%; in series [7], 74.1%; in series [8] it was 73.1%. This compound displayed a BSA in series [2] of 0. The NNMT in series [3] is recorded as 0.46. This compound had a PCAF in series [4] of 0. Besides, the NUDT7 in series [5] came to 0.26. In series [6], this compound displayed an OTUB2 of 0.

On to `C=CC(=O)N1CC(OC(=O)NC(C)C)C1` [PCM-0102728], for which the viability at 48 h, 10 µM in series [1] worked out at 99.7%; in series [7] it was 110%; in series [8], 108%. Besides, the BSA in series [2] stood at 0. The compound also displayed an NNMT in series [3] of 0. The compound further gave a PCAF in series [4] of 0. Moreover, in series [5], the NUDT7 amounted to 0. The same compound gave an OTUB2 in series [6] of 0.18.

For `C=CC(=O)N1CC2(CCCC2)c2cc3c(cc2C1C)OCCO3` (stereo not shown) [PCM-0102560], the viability at 48 h, 10 µM in series [1] stood at 102%; in series [7], 116%; in series [8], 110%. This compound showed a BSA in series [2] of 0. The NNMT in series [3] came out at 0.19. In series [4], the PCAF stood at 0. Besides, the NUDT7 in series [5] is 0. In series [6], this compound came in with an OTUB2 of 0.

On to `CC(C)(C)n1ncc2c1CCCC2NC(=O)CCl.Cl` (stereo not shown) [PCM-0103046], for which the viability at 48 h, 10 µM in series [1] amounted to 81.5%; in series [7], 89.3%; in series [8], 90.9%. This compound yielded a BSA in series [2] of 0. Also, the NNMT in series [3] was determined as 0. The PCAF in series [4] was 0. In addition, in series [5], the NUDT7 stood at 0. Further, the OTUB2 in series [6] is on record as 0.36.

With `NS(=O)(=O)c1ccc(NC(=O)CCl)cc1` [PCM-0102807], the viability at 48 h, 10 µM in series [1] amounted to 53.8%; in series [7], 8%; in series [8] it was 56.9%. The same compound showed a BSA in series [2] of 0. In series [3], this compound came in with an NNMT of 0. In series [4], this compound had a PCAF of 0. In addition, in series [5], the NUDT7 was 0. In series [6], this compound registered an OTUB2 of 0.29.

For `C=CC(=O)N1CCCC(c2nncn2C2CC2)C1` (stereo not shown) [PCM-0102567], the viability at 48 h, 10 µM in series [1] is 102%; in series [7], 113%; in series [8], 112%. The same compound yielded a BSA in series [2] of 0. Further, the NNMT in series [3] stood at 0. The compound also showed a PCAF in series [4] of 0. Besides, in series [5], the NUDT7 is 0. In series [6], this compound yielded an OTUB2 of 0.

As for `O=C(CCl)NC(=O)C1COc2ccccc2O1` (stereo not shown) [PCM-0102462], the viability at 48 h, 10 µM in series [1] came out at 103%; in series [7] it was 99.1%; in series [8], 102%. The compound also displayed a BSA in series [2] of 0. For the same compound, the NNMT in series [3] turned out to be 0. Moreover, the PCAF in series [4] worked out at 0. This compound yielded an NUDT7 in series [5] of 0. Moreover, the OTUB2 in series [6] is listed as 0.

For the compound `Cc1ccc(NC(=O)CCl)cc1Br` [PCM-0102955], the viability at 48 h, 10 µM worked out at 41.5% in series [1], 38.3% in series [7] and 71.2% in series [8]. The compound further displayed a BSA in series [2] of 0. In addition, in series [3], the NNMT stood at 0.78. Moreover, in series [4], the PCAF stood at 0. The NUDT7 in series [5] is 0.27. Also, the OTUB2 in series [6] is on record as 0.14.

For the compound `O=C(CCl)NC(=O)NCc1cccs1` [PCM-0102753], the viability at 48 h, 10 µM in series [1] came out at 61.5%; in series [7] it was 55.8%; in series [8], 71.1%. In series [2], this compound yielded a BSA of 0. For the same compound, in series [3], the NNMT was 0.55. In series [4], this compound yielded a PCAF of 0. The NUDT7 in series [5] was found to be 0. Besides, in series [6], the OTUB2 is 0.23.

Turning to `CC(=O)NNC(=O)CCl` [PCM-0102310], the values for the viability at 48 h, 10 µM in series [1], in series [7] and in series [8] were 96.1%, 84.1% and 90.3%, respectively. In series [2], the BSA was 0. In series [3], this compound had an NNMT of 0. Moreover, the PCAF in series [4] is 0. For the same compound, in series [5], the NUDT7 is 0. The OTUB2 in series [6] is 0.18.

On to `O=C(CCl)NC(=O)NC1CCS(=O)(=O)C1` (stereo not shown) [PCM-0102100], for which the viability at 48 h, 10 µM turned out to be 101% in series [1], 99.5% in series [7] and 106% in series [8]. Also, the BSA in series [2] amounted to 0. For the same compound, the NNMT in series [3] came out at 0. Also, the PCAF in series [4] turned out to be 0. Moreover, the NUDT7 in series [5] is given as 0. This compound came in with an OTUB2 in series [6] of 0.09.

Turning to `Cl.O=C(CCl)N1CCN(Cc2cccc(Cl)c2)CC1` [PCM-0102269], the viability at 48 h, 10 µM in series [1] worked out at 6.3%; in series [7] it was 7.9%; in series [8], 24.2%. The BSA in series [2] turned out to be 0. Besides, the NNMT in series [3] amounted to 0. The same compound had a PCAF in series [4] of 0. In series [5], this compound had an NUDT7 of 0. Also, in series [6], the OTUB2 is given as 0.19.

As for `Cc1oc(NC(=O)CCl)c(C#N)c1C` [PCM-0102337], the viability at 48 h, 10 µM in series [1] worked out at 56.5%; in series [7], 82.9%; in series [8], 56.4%. The compound also returned a BSA in series [2] of 0. Further, the NNMT in series [3] is listed as 0.53. This compound also showed a PCAF in series [4] of 0. In series [5], this compound yielded an NUDT7 of 0. The same compound yielded an OTUB2 in series [6] of 0.45.

For `C=CC(=O)N1CCCC(Oc2ncccc2F)C1` (stereo not shown) [PCM-0102725], the viability at 48 h, 10 µM is 108% in series [1], 80.3% in series [7] and 109% in series [8]. The BSA in series [2] was found to be 0. In series [3], this compound came in with an NNMT of 0.13. The PCAF in series [4] amounted to 0. The compound further came in with an NUDT7 in series [5] of 0. Besides, in series [6], the OTUB2 came to 0.07.

The values above are taken from article PMC6556873, “Rapid Covalent-Probe Discovery by Electrophile-Fragment Screening” (Journal of the American Chemical Society, 2019).
